Assay results as given in article PMC5074076, “Novel minimal physiologically-based model for the prediction of passive tubular reabsorption and renal excretion clearance” (European Journal of Pharmaceutical Sciences, 2016).
“And” between values parts separate entries of the source, which are not always exact repeats. Equal entries are not always repeated. Where two headings read alike, the source gives them in different places.

Key:
[1] = Observed clearance ratio and fraction reabsorbed (Freab, Freab′) calculated from CLR, fu,p and GFR; conditions: for Apparent Freab / Apparent Freab’: calculated from observed CLR, fu,p and GFR; for Freab: observed/apparent, 1 - CLR/(GFR x fu,p), GFR 120 mL/min
Experimental: The clearance ratio was calculated from clinical data using Eqs. […] For the remaining drugs the fraction reabsorbed (Freab) was calculated using Eq.
GFR values for healthy subjects may vary as a result of biological as well as inter-individual variation and also the method of measurement. […] Individual GFR values for subjects in clinical trials databases were generally not available.
In the proposed model, the nephron is represented as five compartments, namely the glomerulus and four tubular regions, as depicted in Fig. 1. The tubular compartments in the model, listed in anatomical order starting from the glomerulus are: the proximal tubule (PT), the loop of Henle (LoH), the distal tubule (DT) and the collecting duct (CD). […] The relationship between Freab′ and Freab is shown in Eq. (11). The predicted overall Freab′ was calculated from the predicted Freab′ in each (i) tubular region (Freab,i′), as shown in Eq. (12).

[2] = LogD7.4 octanol-buffer, shake-flask (or ACD / BioByte); conditions: pH 7.4
From the text: (§1) The pKa values associated with ionisable centres identified within a given drug were used to calculate the fraction of drug ionised at pH 6.5. Drugs were then classified into groups as follows: drugs with > 50% unionised at pH 6.5 were classified as “Neutral”; drugs with > 50% ionised as mono −/di −/tri-protic acids or bases were classified as “Acid” or “Base”, respectively; “Zwitterions” were classified as drugs with > 50% ionised, with the major ionised species having no net charge; all other drugs were classified as amphoteric. […] LogD6.5 for neutral, amphoteric and zwitterion drugs were assumed to be equal to LogD7.4.

[3] = Ionisation classification at pH 6.5 from pKa; format: physicochemical; conditions: predominant species (> 50%) at pH 6.5 from measured or calculated pKa
From the text: as §1

[4] = LogD6.5 estimated from LogD7.4 and pKa; conditions: octanol/buffer, pH 6.5
From the text: as §1

[5] = cited from earlier work; for CLR: healthy adult subjects, overall weighted mean of literature values, absolute (not normalised), ref Supplementary Results Table S2.1; for Overall weighted mean CLR: healthy subjects, plasma and urine data from same subjects, normalised for subject weight and body surface area where necessary; for Overall weighted mean CLR / CLR Observed: ref Table S2.1; for CLR Observed: overall weighted mean of values obtained from a literature survey
[6] = Caco-2 apparent permeability (Papp), apical to basolateral, pH 6.5-7.4 gradient, efflux inhibitor cocktail; conditions: human, Caco-2, pH 6.5
Experimental: (§2) The assay was performed using the apical to basolateral pH gradient format of pH 6.5 to pH 7.4. […] The efflux transporter inhibitor cocktail was used to minimise the effect of efflux transporters expressed in Caco-2 cells (e.g. P-glycoprotein, BCRP and MRP2) on the estimate of apical to basolateral Papp of substrates for such transporters.

[7] = pKa, potentiometric AstraZeneca in-house assay (or ACD / BioByte)
From the text: as §1

[8] = Papp-Freab′ calibration of Caco-2 Papp with reference drugs and CLR prediction; set-up: species or system human; conditions: reference drugs; calibrated Caco-2 Papp after Hill equation fitting
From the text: To account for this and to allow the Caco-2 data in the present study to be transferable to other assay formats/laboratories, a Papp–Freab′ calibration method was explored by splitting the available Papp and Freab′ data into ‘reference’ and internal ‘validation’ subsets. […] The calibration approach is proposed as a pragmatic method to account for inter-assay/inter-laboratory differences; herein it is applied to the current dataset only, and not external data as intended for future studies.
In order to evaluate the application of Papp–Freab′ calibration (Eq. (17)), 11 drugs were selected as reference ‘calibrator’ drugs (Papp,ref) covering a representative range of Freab′ and Papp values (Table 5). The remaining 34 drugs were treated as an internal ‘validation’ set.

[9] = tested on: Caco-2 cell monolayers; assay: Caco-2 apparent permeability (Papp), apical to basolateral, pH 6.5-7.4 gradient, efflux inhibitor cocktail; conditions: Caco-2, apical to basolateral, pH 6.5 to 7.4, efflux inhibitor cocktail, 2 h
Experimental: as §2

[10] = pKa (base), measured, potentiometric
[11] = pKa (acid), measured, potentiometric

Compound	Apparent Freab [1]	Apparent Freab’ [1]	Freab [1]	logD ([2]; octanol/buffer)	Ionisation at pH 6.5 [3]	logD [4]	Papp A→B at 2 h [6] [×10⁻⁶ cm/s]	pKa [7, 10]	pKa [7, 11]	Freab ([1]; listed as isoxicam)	Freab′ ([1]; observed, fraction of equilibrium reached between urine and plasma)	pKa [7]	Papp,ref,calibrated [8]	Papp [9]	Freab ([1]; listed as probenecid)	CLR [5]	Overall weighted mean CLR [5] [mL/min]	CLR Observed [5] [mL/min]	CLR ([5]; listed as isoxicam) [mL/min]	logD [2]
CCN(CC)CCCN(c1ccccc1)C1Cc2ccccc2C1 [Aprindine]	0.785	0.791	0.78	2.5	Base	1.53	31.8	–	–	–	–	–	–	–	–	1.28 mL/min	1.3	1.28	–	–
CC(C)NCC(O)COc1ccc(CCOCC2CC2)cc1 (centres unmarked) [Betaxolol]	0.081	0.081	0.08	0.63	Base	–	20	9.53	–	–	–	–	–	–	–	49.6 mL/min	49.6	49.64	–	–
Cc1c(F)c(N2CCNC(C)C2)cc2c1c(=O)c(C(=O)O)cn2C1CC1 (centres unmarked) [Grepafloxacin]	0.350	0.353	0.35	0.5	Zwitterion	0.5	110	–	–	–	–	–	–	–	–	47.6 mL/min	47.6	47.60	–	–
CN(C)CCCN1c2ccccc2CCc2ccccc21 [Imipramine]	–	–	–	–	–	–	–	9.17	–	–	–	–	–	–	–	–	–	–	–	–
N=C(N)c1ccc(CNC(=O)[C@@H]2CCN2C(=O)[C@H](NCC(=O)O)C2CCCCC2)cc1 [Melagatran]	-0.021	-0.021	–	–	Amphoteric	–	0.145	–	2.12	–	–	–	–	–	–	114 mL/min	113.7	113.74	–	–
COCCc1ccc(OCC(O)CNC(C)C)cc1 (centres unmarked) [Metoprolol]	-0.050	-0.050	–	–	Base	–	17	–	–	–	–	9.4	–	–	–	110 mL/min	109.6	109.58	–	–
C[C@]12C=CC(=O)C=C1CC[C@@H]1[C@@H]2C(=O)C[C@@]2(C)[C@H]1CC[C@]2(O)C(=O)CO [Prednisone]	0.299	0.301	0.30	1.25	Neutral	1.25	37.3	–	–	–	–	–	–	–	–	37.9 mL/min	37.9	37.87	–	–
NC(=O)c1ncn([C@@H]2O[C@H](CO)[C@@H](O)[C@H]2O)n1 [Ribavirin]	0.084	0.085	0.08	–	Neutral	–	1.55	–	–	–	–	–	0.03 × 10^− 6 cm/s	–	–	109.9 mL/min and 110 mL/min	109.9	109.94	–	–
CC1(C)O[C@@H]2[C@@H](CO[C@@]3(COS(N)(=O)=O)OC(C)(C)O[C@@H]23)O1 [Topiramate]	0.856	0.863	0.86	0.6	Neutral	0.61	46.2	–	–	–	–	–	–	–	–	15.1 mL/min	15.1	15.05	–	–
COc1ccc(C(CN(C)C)C2(O)CCCCC2)cc1 (centres unmarked) [Venlafaxine]	0.088	0.089	0.09	–	Base	0.05	27.6	–	–	–	–	–	–	–	–	80.0 mL/min	80.0	80.00	–	0.95

More lines, main results first:

Apparent Freab [1]	Apparent Freab’ [1]	Freab [1]	logD ([2]; octanol/buffer)	Ionisation at pH 6.5 [3]	logD [4]	Papp A→B at 2 h [6] [×10⁻⁶ cm/s]	pKa [7, 10]	pKa [7, 11]	Freab ([1]; listed as isoxicam)	Freab′ ([1]; observed, fraction of equilibrium reached between urine and plasma)	pKa [7]	Papp,ref,calibrated [8]	Papp [9]	Freab ([1]; listed as probenecid)	Compound	CLR [5]	Overall weighted mean CLR [5] [mL/min]	CLR Observed [5] [mL/min]	CLR ([5]; listed as isoxicam) [mL/min]	logD [2]
0.939	0.947	0.94	–	Zwitterion	–	74.6	7.39	5.81	–	–	–	–	–	–	CN1CCN(c2cc3c(cc2F)c(=O)c(C(=O)O)cn3-c2ccc(F)cc2)CC1 [Difloxacin]	4.54 mL/min	4.5	4.54	–	–
0.638	0.643	0.64	2.23	Base	1.41	36.5	–	–	–	–	–	–	–	–	CN(C)CCC=C1c2ccccc2COc2ccccc21 [Doxepin]	9.75 mL/min	9.8	9.75	–	–
0.623	0.628	0.62	1.29	Acid	2.19	44	–	3.91	–	–	–	–	–	–	CCCCC1=NC2(CCCC2)C(=O)N1Cc1ccc(-c2ccccc2-c2nnn[nH]2)cc1 [Irbesartan]	2.37 mL/min	2.4	2.37	–	–
0.995	1.003	1.00	–	Acid	0.7	142	–	3.84	≥ 0.99	1	–	–	–	–	Cc1cc(NC(=O)C2=C(O)c3ccccc3S(=O)(=O)N2C)no1 [Isoxicam]	0.02 mL/min	–	0.02	0.022	–
0.943	0.951	0.94	1.6	Base	1.34	64.4	–	–	–	–	–	–	–	–	O=C(NCCN1CCOCC1)c1ccc(Cl)cc1 [Moclobemide]	3.42 mL/min	3.4	3.42	–	–
0.019	0.019	0.02	–	Zwitterion	–	0.85	–	–	–	–	–	0.01 × 10^− 6 cm/s	0.85 × 10^− 6 cm/s	–	CN(C)[C@@H]1C(O)=C(C(N)=O)C(=O)[C@@]2(O)C(O)=C3C(=O)c4c(O)cccc4[C@@](C)(O)[C@H]3[C@H](O)[C@@H]12 [Oxytetracycline]	90.8 mL/min	90.8	90.80	–	–
0.955	0.963	0.96	–	Acid	0.76	84.5	–	3.36	–	–	–	–	–	0.955	CCCN(CCC)S(=O)(=O)c1ccc(C(=O)O)cc1 [Probenecid]	0.50 mL/min	0.5	0.50	–	–
0.547	0.552	0.55	–	Base	1.27	32.3	–	–	–	–	–	–	–	–	CCCN1CCCC[C@H]1C(=O)Nc1c(C)cccc1C [Ropivacaine]	2.73 mL/min	2.7	2.73	–	2.1
